What was measured:
velvetleaf [1] = test: Test A pre-/postemergence herbicide test; type: in vivo, Abutilon theophrasti; conditions: for Plant response rating, Velvetleaf: Postemergence; for Velvetleaf plant response rating: Preemergence
Summary of the method: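 Visual injury scores on a 0–100 scale (100 = complete control) taken about ten days post-treatment in greenhouse against untreated controls; dash means no result. Treatments: preemergence soil spray and postemergence spray to runoff on one- to two-leaf plants 2 to 10 cm tall, surfactant-containing formulation.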

corn [2] = test: Test B pre-/postemergence herbicide test; type: in vivo, Zea mays
Summary of the method: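 Flooded paddy rice and barnyardgrass were treated at the 2-leaf stage; upland plantings received compound either on sown seed or on 1- to 4-leaf seedlings. All were kept 13–15 days in a greenhouse and scored visually, 0–100, relative to untreated plants.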

ducksalad = test: Test B flooded paddy test; type: in vivo, Heteranthera limosa; conditions: 1000 g ai/ha, visual rating, scale 0 to 100 (0 no effect, 100 complete control), 13 to 15 days
Summary of the method: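 Visual control ratings, 0–100 versus untreated controls, taken after 13 to 15 days in the greenhouse. Blackgrass received a postemergence spray at the 1- to 4-leaf stage (2–18 cm); ducksalad, umbrella sedge and barnyardgrass were flooded-paddy treated at 2 leaves.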

cocklebur = test: Test C pre-/postemergence herbicide test; type: in vivo, Xanthium strumarium
Summary of the method: (§1)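 Visual ratings on a 0–100 scale (100 = complete control) made versus untreated controls after 12 to 14 greenhouse days. Test chemicals, formulated in surfactant-containing non-phytotoxic solvent, applied preemergence to planted seeds or postemergence to 1- to 4-leaf plants (2 to 18 cm).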

corn [3] = test: Test C pre-/postemergence herbicide test; type: in vivo, Zea mays
Summary of the method: as §1

giant foxtail = test: Test C pre-/postemergence herbicide test; type: in vivo, Setaria faberi
Summary of the method: as §1

kochia = test: Test C pre-/postemergence herbicide test; type: in vivo, Kochia scoparia
Summary of the method: as §1

velvetleaf [4] = test: Test C pre-/postemergence herbicide test; type: in vivo, Abutilon theophrasti
Summary of the method: as §1

[5] = 2000 g ai/ha, 0 to 100 scale, 0 no effect, 100 complete control
[6] = 500 g ai/ha, visual rating, 0 to 100 scale (0 no effect, 100 complete control)
[7] = Preemergence, 500 g ai/ha, scale 0 to 100
[8] = 31 g ai/ha, preemergence, scale 0 to 100
[9] = 125 g ai/ha, scale 0 (no effect) to 100 (complete control), visual, 12 to 14 days, preemergence
[10] = Postemergence, 125 g ai/ha, scale 0 to 100, 0 no effect, 100 complete control
[11] = postemergence, 62 g ai/ha, scale 0 to 100
[12] = 250 g ai/ha, scale 0 to 100 (0 no effect, 100 complete control), visual, 12 to 14 days, preemergence
[13] = Postemergence, 250 g ai/ha, scale 0 to 100, 0 no effect, 100 complete control

Row | Structure (SMILES) | Plant response rating, Velvetleaf (velvetleaf [1]; [5]) | Velvetleaf plant response rating (velvetleaf [1]; [6]) | Velvetleaf plant response rating (velvetleaf [1]; [5]) | Corn plant response rating (corn [2]; [7]) | Ducksalad plant response rating (ducksalad) | Plant response rating (0 = no effect, 100 = complete control), Cocklebur (cocklebur; 62 g ai/ha, preemergence) | Plant response rating, Cocklebur (cocklebur; [10]) | Plant response rating, Cocklebur (cocklebur; [11]) | Plant response rating (0 = no effect, 100 = complete control), Corn (corn [3]; 62 g ai/ha, preemergence) | Plant response rating, Corn (corn [3]; [9]) | Plant response rating, Corn (corn [3]; [10]) | Plant response rating, Corn (corn [3]; [11]) | Plant response rating (0 = no effect, 100 = complete control), Foxtail, Giant (giant foxtail; 62 g ai/ha, preemergence) | Plant response rating, Foxtail, Giant (giant foxtail; [9]) | Plant response rating, Foxtail, Giant (giant foxtail; [10]) | Plant response rating, Foxtail, Giant (giant foxtail; [11]) | Plant response rating (0 = no effect, 100 = complete control), Kochia (kochia; 62 g ai/ha, preemergence) | Plant response rating, Kochia (kochia; [9]) | Plant response rating, Kochia (kochia; [10]) | Plant response rating, Kochia (kochia; [11]) | further results
1 | CCNC(=O)c1cccc(NC(=O)c2cc(C(C)(C)C)nn2CCF)c1 [Compound 35] | 40 | 35 | 95 | 40 | 80 | 0 | 70 | 60 | 0 | 0 | 40 | 30 | 20 | 30 | 40 | 40 | 10 | 10 | 90 | 90 | Plant response rating, Velvetleaf (velvetleaf [1]; 500 g ai/ha, 0 to 100 scale, 0 no effect, 100 complete control): 25; Plant response rating, Cocklebur (cocklebur; [8]): 0; Plant response rating, Cocklebur (cocklebur; [9]): 20; Plant response rating, Cocklebur (cocklebur; postemergence, 16 g ai/ha, scale 0 to 100): 20; Plant response rating, Cocklebur (cocklebur; postemergence, 31 g ai/ha, scale 0 to 100): 20; Plant response rating, Corn (corn [3]; [8]): 0; Plant response rating, Foxtail, Giant (giant foxtail; [8]): 0; Plant response rating, Kochia (kochia; [8]): 0; Plant response rating, Velvetleaf (velvetleaf [4]; [8]): 0; Plant response rating (0 = no effect, 100 = complete control), Velvetleaf (velvetleaf [4]; 62 g ai/ha, preemergence): 100; Plant response rating, Velvetleaf (velvetleaf [4]; [9]): 100; Plant response rating, Velvetleaf (velvetleaf [4]; postemergence, 125 g ai/ha, scale 0 to 100): 80; Plant response rating, Velvetleaf (velvetleaf [4]; [11]): 70
2 | CCn1nc(C(C)(C)C)cc1C(=O)Nc1cccc(C(=O)NC2CC2)c1 [Compound 44] | 65 | 20 | 35 | 0 | 70 | 0 | 70 | 50 | 0 | 0 | 70 | 70 | 10 | 10 | 30 | 30 | 0 | 10 | 90 | 90 | Corn plant response rating (corn [2]; Postemergence, 125 g ai/ha, scale 0 (no effect) to 100 (complete control)): 20; Plant response rating, Corn (corn [2]; Postemergence, 500 g ai/ha, visual rating after 13 to 15 days, scale 0 (no effect) to 100 (complete control)): 30; Plant response rating, Cocklebur (cocklebur; [12]): 0; Plant response rating, Cocklebur (cocklebur; [13]): 70; Plant response rating, Corn (corn [3]; [12]): 0; Plant response rating, Corn (corn [3]; [13]): 80; Plant response rating, Foxtail, Giant (giant foxtail; [12]): 10; Plant response rating, Foxtail, Giant (giant foxtail; [13]): 50; Plant response rating, Kochia (kochia; [12]): 10; Plant response rating, Kochia (kochia; [13]): 90; Plant response rating (0 = no effect, 100 = complete control), Velvetleaf (velvetleaf [4]; 62 g ai/ha, preemergence): 70; Plant response rating, Velvetleaf (velvetleaf [4]; [9]): 70; Plant response rating, Velvetleaf (velvetleaf [4]; [12]): 70; Plant response rating, Velvetleaf (velvetleaf [4]; [11]): 60

— patent publication US20060069132A1, “Azolecarboxamide herbicides” (priority 2004, published 2006)
